According to ChEMBL document CHEMBL3864140, “Melanogenesis inhibitory activity of a 7-O-9'-linked neolignan from Alpinia galanga fruit” (Bioorg Med Chem, 2016):

Legend:
[1] = Cytotoxicity against theophylline-stimulated mouse B16-4A5 cells assessed as cell viability at 3 uM after 72 hrs by MTT assay relative to control; type: toxicity; details: theophylline-stimulated B16-4A5 cells, read-out: Activity
[2] = Cytotoxicity against theophylline-stimulated mouse B16-4A5 cells assessed as cell viability at 10 uM after 72 hrs by MTT assay relative to control; type: toxicity; details: theophylline-stimulated B16-4A5 cells, read-out: Activity
[3] = Cytotoxicity against theophylline-stimulated mouse B16-4A5 cells assessed as cell viability at 100 uM after 72 hrs by MTT assay relative to control; type: toxicity; details: theophylline-stimulated B16-4A5 cells, read-out: Activity
[4] = Antimelanogenic activity in theophylline-stimulated mouse B16-4A5 cells assessed as inhibition of melanogenesis at 3 uM after 72 hrs relative to control; type: functional; details: B16-4A5, 72 h
[5] = Antimelanogenic activity in theophylline-stimulated mouse B16-4A5 cells assessed as inhibition of melanogenesis at 10 uM after 72 hrs relative to control; type: functional; details: B16-4A5, 72 h
cells [6] = details: Mus musculus, B16-4A5, 72 h, read-out: INH
Description: Antimelanogenic activity in theophylline-stimulated mouse B16-4A5 cells assessed as inhibition of melanogenesis at 30 uM after 72 hrs relative to control

[7] = Cytotoxicity against theophylline-stimulated mouse B16-4A5 cells assessed as cell viability at 30 uM after 72 hrs by MTT assay relative to control; type: toxicity; details: theophylline-stimulated B16-4A5 cells, read-out: Activity
cells [8] = details: Mus musculus, B16-4A5, 72 h, read-out: INH; remark: listed apart in the source
[9] = Antimelanogenic activity in theophylline-stimulated mouse B16-4A5 cells assessed as inhibition of melanogenesis after 72 hrs relative to control; type: functional, cell-based
[10] = Cytotoxicity against theophylline-stimulated mouse B16-4A5 cells assessed as cell viability at 1 uM after 72 hrs by MTT assay relative to control; type: toxicity; details: theophylline-stimulated B16-4A5 cells, read-out: Activity
[11] = Antimelanogenic activity in theophylline-stimulated mouse B16-4A5 cells assessed as inhibition of melanogenesis at 0.3 uM after 72 hrs relative to control; type: functional; details: B16-4A5, 72 h
[12] = Antimelanogenic activity in theophylline-stimulated mouse B16-4A5 cells assessed as inhibition of melanogenesis at 1 uM after 72 hrs relative to control; type: functional; details: B16-4A5, 72 h
[13] = Cytotoxicity against theophylline-stimulated mouse B16-4A5 cells assessed as cell viability at 0.3 uM after 72 hrs by MTT assay relative to control; type: toxicity; details: theophylline-stimulated B16-4A5 cells, read-out: Activity

## CCC(=O)c1ccc(O)cc1 [PAROXYPROPIONE]
[1]
  viability at 72 h, 3 µM: 111%
[2]
  viability at 72 h, 10 µM: 116%
[3]
  viability at 72 h, 100 µM: 125%
[4]
  inhibition at 3 µM: 4.1%
[5]
  inhibition at 10 µM: -3.6%
Cells [6]
  inhibition at 30 µM: -1.9%
[7]
  viability at 72 h, 30 µM: 117%
Cells [8]
  inhibition at 100 µM: -3.6%

## COC/C=C/c1ccc(O)cc1
[1]
  viability at 72 h, 3 µM: 109%
[2]
  viability at 72 h, 10 µM: 104%
[3]
  viability at 72 h, 100 µM: 107%
[9]
  IC50: 19.5 µM
[4]
  inhibition at 3 µM: 18.2%
[5]
  inhibition at 10 µM: 25.1%
Cells [6]
  inhibition at 30 µM: 56.9%
[7]
  viability at 72 h, 30 µM: 93.6%
Cells [8]
  inhibition at 100 µM: 81.7%

## C=C[C@@H](OC(C)=O)c1ccc(OC(C)=O)cc1
[10]
  viability at 72 h, 1 µM: 98.8%
[1]
  viability at 72 h, 3 µM: 95.2%
[2]
  viability at 72 h, 10 µM: 88.7%
[9]
  IC50: 4.5 µM
[11]
  inhibition at 0.3 µM: 8.4%
[4]
  inhibition at 3 µM: 36.8%
[12]
  inhibition at 1 µM: 21.2%
[5]
  inhibition at 10 µM: 69.2%
[13]
  viability at 72 h, 0.3 µM: 96.6%

## C=CC(OC/C=C/c1ccc(O)cc1)c1ccc(O)cc1 (racemic)
[10]
  viability at 72 h, 1 µM: 95.1%
[1]
  viability at 72 h, 3 µM: 104%
[2]
  viability at 72 h, 10 µM: 105%
[9]
  IC50: 3 µM
[11]
  inhibition at 0.3 µM: 26.7%
[4]
  inhibition at 3 µM: 50.9%
[12]
  inhibition at 1 µM: 43.6%
[5]
  inhibition at 10 µM: 77.4%
[13]
  viability at 72 h, 0.3 µM: 102%

## CC(=O)OC/C=C/c1ccc(O)cc1
[1]
  viability at 72 h, 3 µM: 99.2%
[2]
  viability at 72 h, 10 µM: 100%
[3]
  viability at 72 h, 100 µM: 90.1%
[4]
  inhibition at 3 µM: 4.1%
[5]
  inhibition at 10 µM: 0%
Cells [6]
  inhibition at 30 µM: -3%
[7]
  viability at 72 h, 30 µM: 96.1%
Cells [8]
  inhibition at 100 µM: -13.4%

## COc1cc(/C=C/CO)ccc1O [CONIFERYL ALCOHOL]
[1]
  viability at 72 h, 3 µM: 98.9%
[2]
  viability at 72 h, 10 µM: 98.2%
[3]
  viability at 72 h, 100 µM: 33.1%
[9]
  IC50: 16.1 µM
[4]
  inhibition at 3 µM: 35.9%
[5]
  inhibition at 10 µM: 44.5%
Cells [6]
  inhibition at 30 µM: 64.2%
[7]
  viability at 72 h, 30 µM: 88%
Cells [8]
  inhibition at 100 µM: -3%

## O=Cc1ccc(O)cc1 [4-HYDROXYBENZALDEHYDE]
[1]
  viability at 72 h, 3 µM: 107%
[2]
  viability at 72 h, 10 µM: 103%
[3]
  viability at 72 h, 100 µM: 103%
[4]
  inhibition at 3 µM: 11.3%
[5]
  inhibition at 10 µM: 4.2%
Cells [6]
  inhibition at 30 µM: 7.9%
[7]
  viability at 72 h, 30 µM: 107%
Cells [8]
  inhibition at 100 µM: 3.5%

## OC/C=C/c1ccc(O)cc1
[1]
  viability at 72 h, 3 µM: 98.9%
[2]
  viability at 72 h, 10 µM: 98.4%
[3]
  viability at 72 h, 100 µM: 110%
[9]
  IC50: > 100 µM
[4]
  inhibition at 3 µM: -3.4%
[5]
  inhibition at 10 µM: -2.8%
Cells [6]
  inhibition at 30 µM: 35.8%
[7]
  viability at 72 h, 30 µM: 116%
Cells [8]
  inhibition at 100 µM: 46.9%

## C=C[C@@H](OC/C=C/c1ccc(O)cc1)c1ccc(O)cc1
[10]
  viability at 72 h, 1 µM: 107%
[1]
  viability at 72 h, 3 µM: 103%
[2]
  viability at 72 h, 10 µM: 93.9%
[9]
  IC50: 3.2 µM
[11]
  inhibition at 0.3 µM: 32.9%
[4]
  inhibition at 3 µM: 47.7%
[12]
  inhibition at 1 µM: 47.1%
[5]
  inhibition at 10 µM: 80.2%
[13]
  viability at 72 h, 0.3 µM: 106%

## C=C[C@H](O)c1ccc(OC(C)=O)cc1
[1]
  viability at 72 h, 3 µM: 87.9%
[2]
  viability at 72 h, 10 µM: 97.2%
[3]
  viability at 72 h, 100 µM: 114%
[9]
  IC50: 88.5 µM
[4]
  inhibition at 3 µM: -6.7%
[5]
  inhibition at 10 µM: -0.4%
Cells [6]
  inhibition at 30 µM: 14.9%
[7]
  viability at 72 h, 30 µM: 101%
Cells [8]
  inhibition at 100 µM: 56.7%

## COc1cc(C=O)ccc1O [VANILLIN]
[1]
  viability at 72 h, 3 µM: 108%
[2]
  viability at 72 h, 10 µM: 104%
[3]
  viability at 72 h, 100 µM: 106%
[9]
  IC50: 49.2 µM
[4]
  inhibition at 3 µM: -8.4%
[5]
  inhibition at 10 µM: 8.4%
Cells [6]
  inhibition at 30 µM: 49.7%
[7]
  viability at 72 h, 30 µM: 104%
Cells [8]
  inhibition at 100 µM: 96.1%

## O=C/C=C/c1ccc(O)cc1 [p-HYDROXYCINNAMALDEHYDE]
[1]
  viability at 72 h, 3 µM: 103%
[2]
  viability at 72 h, 10 µM: 108%
[3]
  viability at 72 h, 100 µM: 66.8%
[9]
  IC50: 18.3 µM
[4]
  inhibition at 3 µM: 8.9%
[5]
  inhibition at 10 µM: 12.8%
Cells [6]
  inhibition at 30 µM: 67.4%
[7]
  viability at 72 h, 30 µM: 94.3%
Cells [8]
  inhibition at 100 µM: 104%

## COc1cc(/C=C/CO)ccc1OC(C)=O
[1]
  viability at 72 h, 3 µM: 90.6%
[2]
  viability at 72 h, 10 µM: 85.9%
[3]
  viability at 72 h, 100 µM: 41.7%
[9]
  IC50: 16.9 µM
[4]
  inhibition at 3 µM: 5.5%
[5]
  inhibition at 10 µM: 12.9%
Cells [6]
  inhibition at 30 µM: 102%
[7]
  viability at 72 h, 30 µM: 60.1%
Cells [8]
  inhibition at 100 µM: 63.3%

## CC(=O)Oc1ccc(/C=C/CO)cc1
[1]
  viability at 72 h, 3 µM: 92.9%
[2]
  viability at 72 h, 10 µM: 85.8%
[3]
  viability at 72 h, 100 µM: 44.9%
[9]
  IC50: 29.4 µM
[4]
  inhibition at 3 µM: 10.7%
[5]
  inhibition at 10 µM: 18%
Cells [6]
  inhibition at 30 µM: 96.9%
[7]
  viability at 72 h, 30 µM: 65.5%
Cells [8]
  inhibition at 100 µM: 94.8%

## COc1cc(/C=C/C=O)ccc1O [CONIFERYL ALDEHYDE]
[1]
  viability at 72 h, 3 µM: 101%
[2]
  viability at 72 h, 10 µM: 85.8%
[3]
  viability at 72 h, 100 µM: 44.7%
[9]
  IC50: 15.3 µM
[4]
  inhibition at 3 µM: 17%
[5]
  inhibition at 10 µM: 23.7%
Cells [6]
  inhibition at 30 µM: 100%
[7]
  viability at 72 h, 30 µM: 74.2%
Cells [8]
  inhibition at 100 µM: 87.7%

## C=C[C@H](O)c1ccc(OC(C)=O)c(OC)c1
[1]
  viability at 72 h, 3 µM: 104%
[2]
  viability at 72 h, 10 µM: 114%
[3]
  viability at 72 h, 100 µM: 124%
[4]
  inhibition at 3 µM: 5%
[5]
  inhibition at 10 µM: 10.9%
Cells [6]
  inhibition at 30 µM: 11.7%
[7]
  viability at 72 h, 30 µM: 113%
Cells [8]
  inhibition at 100 µM: 22.9%

## CC[C@H](OC(C)=O)c1ccc(OC(C)=O)cc1
[1]
  viability at 72 h, 3 µM: 106%
[2]
  viability at 72 h, 10 µM: 105%
[3]
  viability at 72 h, 100 µM: 94.5%
[9]
  IC50: 10.5 µM
[4]
  inhibition at 3 µM: 41.6%
[5]
  inhibition at 10 µM: 44.5%
Cells [6]
  inhibition at 30 µM: 74.1%
[7]
  viability at 72 h, 30 µM: 96.5%
Cells [8]
  inhibition at 100 µM: 105%

## C=C[C@H](OC/C=C/c1ccc(O)cc1)c1ccc(O)cc1
[10]
  viability at 72 h, 1 µM: 119%
[1]
  viability at 72 h, 3 µM: 120%
[2]
  viability at 72 h, 10 µM: 114%
[9]
  IC50: 3.3 µM
[11]
  inhibition at 0.3 µM: 40.4%
[4]
  inhibition at 3 µM: 46.4%
[12]
  inhibition at 1 µM: 46.4%
[5]
  inhibition at 10 µM: 70.5%
[13]
  viability at 72 h, 0.3 µM: 111%

## C=CC(OC(C)=O)c1ccc(OC(C)=O)cc1 (racemic)
[10]
  viability at 72 h, 1 µM: 104%
[1]
  viability at 72 h, 3 µM: 108%
[2]
  viability at 72 h, 10 µM: 31.8%
[9]
  IC50: 4.4 µM
[11]
  inhibition at 0.3 µM: 5%
[4]
  inhibition at 3 µM: 35.1%
[12]
  inhibition at 1 µM: 4.4%
[5]
  inhibition at 10 µM: 103%
[13]
  viability at 72 h, 0.3 µM: 102%
